# Columns and labels:
# [1] = biological target: T1, Ba/F3-FL-EGFR (Homo sapiens, UniProt P00533); assay: CellTiter-Glo proliferation, Ba/F3-FL-EGFR; type: cell-based; conditions: 72 hours, read-out: Ba/F3-FL-EGFR IC50/nM
# T1 construct: FL read as full length
# Procedure, shortened: (§1)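 Ba/F3 lines dependent on the indicated EGFR variants were treated with compounds at a final DMSO concentration of 0.1% at 37 °C, 5% CO2. Viability was read by CellTiter-Glo luminescence, and inhibition rate was normalised to DMSO-treated cells (max) and medium-only wells (min). IC50 came from inhibition curves.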
# [2] = biological target: Ba/F3-FL-EGFR-L858R (Homo sapiens, UniProt P00533, L858R, cells depend on it); assay: CellTiter-Glo proliferation, Ba/F3-FL-EGFR-L858R; type: cell-based; conditions: 72 hours, read-out: Ba/F3-FL-EGFR-L858R IC50/nM
# Procedure, shortened: as §1
# [3] = biological target: T2, Ba/F3-TEL-EGFR-L858R-C797S (Homo sapiens, UniProt P00533, C797S/L858R, cells depend on it); assay: CellTiter-Glo proliferation, Ba/F3-TEL-EGFR-L858R-C797S; type: cell-based; conditions: 72 hours, read-out: Ba/F3-TEL-EGFR-L858R-C797S IC50/nM
# T2 construct: fused on or other part: N-terminal TEL (ETV6) oligomerising part fused to the EGFR intracellular/kinase part; P41212 (Transcription factor ETV6)
# Procedure, shortened: as §1
# [4] = biological target: Ba/F3-FL-EGFR-L858R-T790M-C797S (Homo sapiens, UniProt P00533, T790M/C797S/L858R, cells depend on it); assay: CellTiter-Glo proliferation, Ba/F3-FL-EGFR-L858R-T790M-C797S; type: cell-based; conditions: 72 hours, read-out: Ba/F3-FL-EGFR-L858R-T790M-C797S IC50/nM
# Procedure, shortened: as §1
# [5] = test system: Ba/F3-FL-EGFR-del19-C797S; assay: CellTiter-Glo proliferation, Ba/F3-FL-EGFR-del19-C797S; type: cell-based; conditions: 72 h, proliferation, 72 hours, CellTiter-Glo; read-out: Ba/F3-FL-EGFR-del19-C797S IC50/nM
# Procedure, shortened: as §1
# [6] = biological target: Ba/F3-FL-EGFR-del19-T790M-C797S (Homo sapiens, UniProt P00533, DEL746-750/T790M/C797S, cells depend on it); assay: CellTiter-Glo proliferation, Ba/F3-FL-EGFR-del19-T790M-C797S; type: cell-based; conditions: 72 hours, read-out: Ba/F3-FL-EGFR-del19-T790M-C797S IC50/nM
# Protocol: Promega CellTiter-Glo reagent was used to detect the effects of small molecule inhibitors on the proliferation of three Ba/F3 cell lines (Ba/F3-FL-EGFR-de119, Ba/F3-FL-EGFR-de119-T790M, Ba/F3-FL-EGFR-de119-T790M-C797S).
# The cell lines were cultured in an incubator at 37° C. and 5% CO2. Cells were passaged regularly and cells in the logarithmic phase were used for plating. 95 μL of cell suspension was added to each well of the cell plate, and culture medium without cells (containing 0.1% DMSO) was added to the Min control wells. Substance addition for compound detection cell plate: 5 μL of 20× compound working solution was added to the cell culture plate. 5 μL of DMSO-cell culture medium mixture was added to the Max control, with the final DMSO concentration of 0.1%. 5 μL of DMSO-cell culture medium mixture was added to the Max control. The final DMSO concentration was 0.1%.
# Cell viability was detected by CellTiter-Glo luminescence assay. Data analysis:
# The cell proliferation inhibition rate (Inhibition Rate) data was processed using the following formula: […]
# wherein: RLUDrug represents the relative luminescence unit of the cells with the addition of drug, RLUMin represents the luminescence unit of the culture medium, and RLUMax represents the relative luminescence unit of the cells with the addition of DMSO.
# The inhibition rates corresponding to different concentrations of compounds were calculated in EXCEL, and then the inhibition rate curve was plotted using GraphPad Prism software and related parameters including the maximum and minimum inhibition rates of cells and IC50 values were calculated.
# [7] = Liver microsome stability test, human; type: in vitro ADME; conditions: human liver microsomes 0.5 mg/ml, compound 1 μM, NADPH 1 mM, within 60 minutes
# Protocol: (§2) The compounds of the present disclosure were subjected to a liver microsome stability test. The compounds to be tested were co-incubated with liver microsomes of different species with or without the addition of NADPH. The final concentration of the compounds to be tested in the test system was 1 μM. The final concentration of NADPH was 1 mM, and the final concentration of liver microsomes was 0.5 mg/ml.
# [8] = Liver microsome stability test, mouse; type: in vitro ADME; conditions: mouse liver microsomes 0.5 mg/ml, compound 1 μM, NADPH 1 mM, within 60 minutes
# Protocol: as §2
# [9] = test system: BaF3 (del19/T790M1C797S) tumor cells; assay: In vivo efficacy assay in BALB/c nude mice, subcutaneous BaF3 tumor; conditions: 100 mg/kg BID oral (50 mg/kg for the first 4 days, 100 mg/kg from the 5th day), after 13 days
# Protocol: In vivo efficacy assay in BALB/c nude mice. Details were as follows:
# BaF3 (del19/T790M1C797S) tumor cells were cultured and inoculated into 6-8 weeks old female BALB/c nude mice (weighing about 20 g), with all mice being subcutaneously inoculated. The mice were cultured in an SPF-grade experimental environment, and all mice had free access to commercially certified standard diets. When the average tumor volume of the mice grew to about 150 mm^3, the test compound was orally administered daily. The dosage was as follows: blank group vehicle (DMSO/Solutol/H2O, 5/10/85). […] The tumor volume was measured three times a week with a two-dimensional caliper, and the animals were weighed every day. […] The volume calculation formula is: V=1/2a*b^2, where a represents the long diameter of the tumor, and b represents the short diameter of the tumor.
# [10] = biological target: Ba/F3-FL-EGFR-Del19 (E746-A750) (Homo sapiens, UniProt P00533, DEL746-750, cells depend on it); assay: CellTiter-Glo proliferation, Ba/F3-FL-EGFR-Del19; conditions: read-out: Ba/F3-FL-EGFR-Del19 (E746-A750), 72 hours
# [11] = biological target: Ba/F3-FL-EGFR-del19/T790M (Homo sapiens, UniProt P00533, DEL746-750/T790M, cells depend on it); assay: CellTiter-Glo proliferation, Ba/F3-FL-EGFR-del19/T790M; conditions: read-out: Ba/F3-FL-EGFR-del19/T790M IC50/nM, 72 hours
# Chain of Ba/F3-FL-EGFR-del19/T790M (P00533 with tags, fused parts or gaps DEL746-750/T790M): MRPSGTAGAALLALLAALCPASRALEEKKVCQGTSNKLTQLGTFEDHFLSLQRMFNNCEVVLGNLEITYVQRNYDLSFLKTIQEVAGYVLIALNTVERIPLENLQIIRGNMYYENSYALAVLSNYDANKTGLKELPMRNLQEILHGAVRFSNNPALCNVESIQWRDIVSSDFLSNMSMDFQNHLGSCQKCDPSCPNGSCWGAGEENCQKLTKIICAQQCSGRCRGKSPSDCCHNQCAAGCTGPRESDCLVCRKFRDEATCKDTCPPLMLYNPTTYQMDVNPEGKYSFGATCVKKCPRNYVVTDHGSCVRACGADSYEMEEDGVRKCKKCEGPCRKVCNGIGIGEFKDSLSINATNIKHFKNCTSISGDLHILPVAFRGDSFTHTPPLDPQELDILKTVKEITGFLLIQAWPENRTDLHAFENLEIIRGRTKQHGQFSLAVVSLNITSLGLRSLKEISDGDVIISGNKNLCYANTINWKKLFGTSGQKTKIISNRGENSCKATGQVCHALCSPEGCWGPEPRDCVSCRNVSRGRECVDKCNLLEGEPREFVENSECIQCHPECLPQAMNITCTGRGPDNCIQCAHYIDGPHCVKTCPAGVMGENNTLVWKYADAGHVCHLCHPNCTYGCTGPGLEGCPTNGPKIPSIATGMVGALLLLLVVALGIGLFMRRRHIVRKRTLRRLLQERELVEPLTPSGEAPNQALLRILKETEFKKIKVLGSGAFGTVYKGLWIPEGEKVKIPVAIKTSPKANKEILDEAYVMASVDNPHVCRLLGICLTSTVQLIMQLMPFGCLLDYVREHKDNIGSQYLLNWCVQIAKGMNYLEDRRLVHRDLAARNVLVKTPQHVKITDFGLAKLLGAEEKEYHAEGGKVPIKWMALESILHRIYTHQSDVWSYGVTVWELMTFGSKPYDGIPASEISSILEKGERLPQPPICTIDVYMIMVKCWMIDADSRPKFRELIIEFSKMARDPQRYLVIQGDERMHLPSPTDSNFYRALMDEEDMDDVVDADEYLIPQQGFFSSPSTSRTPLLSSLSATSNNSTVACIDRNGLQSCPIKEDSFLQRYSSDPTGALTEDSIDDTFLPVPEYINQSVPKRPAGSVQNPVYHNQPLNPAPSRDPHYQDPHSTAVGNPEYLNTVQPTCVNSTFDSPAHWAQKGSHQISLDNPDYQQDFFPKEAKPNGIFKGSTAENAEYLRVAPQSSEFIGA
# Chain of Ba/F3-FL-EGFR-L858R (P00533 whole entry L858R): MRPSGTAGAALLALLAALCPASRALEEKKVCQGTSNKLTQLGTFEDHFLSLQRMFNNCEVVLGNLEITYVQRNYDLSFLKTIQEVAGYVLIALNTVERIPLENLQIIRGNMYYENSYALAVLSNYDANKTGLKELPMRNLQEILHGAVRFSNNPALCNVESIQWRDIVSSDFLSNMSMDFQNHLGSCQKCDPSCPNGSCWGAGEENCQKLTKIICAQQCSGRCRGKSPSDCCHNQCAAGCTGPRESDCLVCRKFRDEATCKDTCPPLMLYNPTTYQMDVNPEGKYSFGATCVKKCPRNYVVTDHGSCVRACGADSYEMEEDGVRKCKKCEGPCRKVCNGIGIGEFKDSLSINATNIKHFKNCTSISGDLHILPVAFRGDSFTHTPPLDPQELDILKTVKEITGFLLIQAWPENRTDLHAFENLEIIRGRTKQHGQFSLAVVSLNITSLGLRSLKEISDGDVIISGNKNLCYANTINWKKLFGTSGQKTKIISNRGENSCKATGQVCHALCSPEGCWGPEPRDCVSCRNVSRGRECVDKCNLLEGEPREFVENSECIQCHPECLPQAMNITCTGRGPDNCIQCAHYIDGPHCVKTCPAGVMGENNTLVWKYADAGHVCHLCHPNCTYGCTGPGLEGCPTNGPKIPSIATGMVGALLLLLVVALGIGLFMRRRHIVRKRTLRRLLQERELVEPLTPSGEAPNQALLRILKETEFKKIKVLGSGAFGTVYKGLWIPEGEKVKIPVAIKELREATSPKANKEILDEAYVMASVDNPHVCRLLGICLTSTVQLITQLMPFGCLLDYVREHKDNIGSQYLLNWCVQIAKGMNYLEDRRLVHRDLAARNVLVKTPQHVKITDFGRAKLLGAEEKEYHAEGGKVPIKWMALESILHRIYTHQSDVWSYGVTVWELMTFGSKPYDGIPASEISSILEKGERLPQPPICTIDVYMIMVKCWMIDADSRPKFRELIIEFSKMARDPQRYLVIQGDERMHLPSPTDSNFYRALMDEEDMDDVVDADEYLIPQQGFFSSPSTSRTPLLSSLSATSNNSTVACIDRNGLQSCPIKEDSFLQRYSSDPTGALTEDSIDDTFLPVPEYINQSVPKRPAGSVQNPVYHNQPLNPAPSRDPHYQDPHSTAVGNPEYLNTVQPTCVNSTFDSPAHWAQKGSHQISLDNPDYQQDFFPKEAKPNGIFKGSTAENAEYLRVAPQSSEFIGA
# Chain of Ba/F3-FL-EGFR-Del19 (E746-A750) (P00533 with tags, fused parts or gaps DEL746-750): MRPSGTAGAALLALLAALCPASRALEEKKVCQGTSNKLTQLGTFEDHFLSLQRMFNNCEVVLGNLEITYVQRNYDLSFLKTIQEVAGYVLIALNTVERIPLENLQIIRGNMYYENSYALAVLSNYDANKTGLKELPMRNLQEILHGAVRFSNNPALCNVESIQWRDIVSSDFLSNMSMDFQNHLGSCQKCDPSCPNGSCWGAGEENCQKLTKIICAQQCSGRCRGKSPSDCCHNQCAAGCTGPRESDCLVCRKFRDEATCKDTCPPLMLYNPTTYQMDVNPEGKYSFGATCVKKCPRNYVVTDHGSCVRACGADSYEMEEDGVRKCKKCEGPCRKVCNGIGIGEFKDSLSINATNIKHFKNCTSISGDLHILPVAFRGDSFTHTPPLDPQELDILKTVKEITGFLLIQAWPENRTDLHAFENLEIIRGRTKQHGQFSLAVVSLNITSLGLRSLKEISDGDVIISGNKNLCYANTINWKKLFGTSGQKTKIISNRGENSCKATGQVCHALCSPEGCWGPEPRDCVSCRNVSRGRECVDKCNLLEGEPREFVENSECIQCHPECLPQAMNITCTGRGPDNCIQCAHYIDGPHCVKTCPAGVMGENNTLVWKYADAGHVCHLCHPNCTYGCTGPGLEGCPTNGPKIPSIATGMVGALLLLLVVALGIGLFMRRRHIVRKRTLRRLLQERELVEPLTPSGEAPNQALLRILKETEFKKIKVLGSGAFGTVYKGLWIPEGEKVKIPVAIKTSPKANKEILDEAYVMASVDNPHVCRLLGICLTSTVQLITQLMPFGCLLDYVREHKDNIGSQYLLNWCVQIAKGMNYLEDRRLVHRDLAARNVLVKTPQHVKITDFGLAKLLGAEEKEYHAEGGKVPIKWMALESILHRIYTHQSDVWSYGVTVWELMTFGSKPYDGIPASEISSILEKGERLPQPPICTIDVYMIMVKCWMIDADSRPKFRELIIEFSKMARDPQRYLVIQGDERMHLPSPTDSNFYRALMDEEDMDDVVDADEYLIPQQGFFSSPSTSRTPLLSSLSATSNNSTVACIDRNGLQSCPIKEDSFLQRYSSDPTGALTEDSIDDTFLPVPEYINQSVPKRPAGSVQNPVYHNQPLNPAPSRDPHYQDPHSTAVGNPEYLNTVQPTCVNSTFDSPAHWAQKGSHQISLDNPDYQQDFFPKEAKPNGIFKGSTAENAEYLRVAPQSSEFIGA
# T1 sequence (P00533 whole entry, change not shown): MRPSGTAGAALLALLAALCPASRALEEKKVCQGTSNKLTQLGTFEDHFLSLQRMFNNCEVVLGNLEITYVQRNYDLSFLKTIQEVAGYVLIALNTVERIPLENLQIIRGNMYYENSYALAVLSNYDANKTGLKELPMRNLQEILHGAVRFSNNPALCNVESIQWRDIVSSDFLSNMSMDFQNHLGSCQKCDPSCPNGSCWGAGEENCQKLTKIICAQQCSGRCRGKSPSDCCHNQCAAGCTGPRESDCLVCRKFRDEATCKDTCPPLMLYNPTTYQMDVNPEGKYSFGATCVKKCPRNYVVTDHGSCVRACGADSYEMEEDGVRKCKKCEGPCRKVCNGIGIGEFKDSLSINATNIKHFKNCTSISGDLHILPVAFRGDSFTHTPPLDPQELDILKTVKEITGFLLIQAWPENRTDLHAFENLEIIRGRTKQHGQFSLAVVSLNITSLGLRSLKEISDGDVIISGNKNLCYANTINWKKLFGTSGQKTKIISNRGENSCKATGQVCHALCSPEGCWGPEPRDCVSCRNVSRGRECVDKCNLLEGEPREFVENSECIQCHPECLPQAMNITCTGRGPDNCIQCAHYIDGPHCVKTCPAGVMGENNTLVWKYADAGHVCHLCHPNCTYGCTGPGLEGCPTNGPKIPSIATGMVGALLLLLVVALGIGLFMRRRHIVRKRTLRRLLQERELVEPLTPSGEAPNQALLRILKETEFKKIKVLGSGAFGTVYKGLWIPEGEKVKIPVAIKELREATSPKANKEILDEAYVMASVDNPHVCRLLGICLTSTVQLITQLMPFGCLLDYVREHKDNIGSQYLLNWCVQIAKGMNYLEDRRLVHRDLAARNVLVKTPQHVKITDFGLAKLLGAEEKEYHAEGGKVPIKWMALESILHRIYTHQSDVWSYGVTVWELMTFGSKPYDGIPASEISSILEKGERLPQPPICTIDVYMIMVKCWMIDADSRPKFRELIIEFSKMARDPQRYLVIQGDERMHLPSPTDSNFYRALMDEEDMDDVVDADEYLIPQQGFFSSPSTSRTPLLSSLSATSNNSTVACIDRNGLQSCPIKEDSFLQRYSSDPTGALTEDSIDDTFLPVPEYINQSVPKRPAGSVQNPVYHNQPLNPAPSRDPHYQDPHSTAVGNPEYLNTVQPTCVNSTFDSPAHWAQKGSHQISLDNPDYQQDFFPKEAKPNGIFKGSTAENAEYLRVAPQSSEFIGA
smiles,measurement,setting,value
CC(C)c1ccc(N2C[C@H](N(C)S(C)(=O)=O)[C@H]2C)c2cnc(Nc3ccnc(-c4cnn(S(=O)(=O)C5CC5)c4)n3)cc12 [Compound H23],GI50,[1],121 nM
same,GI50,[2],3.7 nM
same,GI50,[3],4.3 nM
same,GI50,[4],10 nM
same,IC50,[5],3.1 nM
same,GI50,[6],3.1 nM
same,CLint scaled at 1 μM,[7],< 8.6 mL/min/kg
same,CLint scaled at 1 μM,[8],448 mL/min/kg
same,Tumor volume (mm^3),[9],28 mm^3
same,TGI,[9]; based on final tumor volume,103%
same,GI50,[10],3.1 nM
same,GI50,[11],0.3 nM
